{"source": "patent US20090005340A1", "about": "“Bioactive Agents Produced By Submerged Cultivation of a Basidiomycete Cell” (MediMush A/S, priority 2005, published 2009)", "origin": "cited, not measured here", "tested_on": "cytochrome P450s (CYPs)"}
{"substance": "Lentinan", "values": [{"measurement": "expression of cytochrome P450s (CYPs)", "result": "suppress the expression"}]}
